Calls of active or inactive are those of the source. Cut-off read from the data, not from the text of the source: actives have a measured IC50 and inactives only a lower limit.

For the assay, the target named is Envelope glycoprotein gp160 (Human immunodeficiency virus 1, UniProt Q6QLK5). The experiment in a line: cell-free HIV fusion peptide-binding blockers – biochemical, uHTS, fluorescence dequenching, […] (AID 1986).
Sequence of Envelope glycoprotein gp160 (Q6QLK5 whole entry, the tested form may be a part): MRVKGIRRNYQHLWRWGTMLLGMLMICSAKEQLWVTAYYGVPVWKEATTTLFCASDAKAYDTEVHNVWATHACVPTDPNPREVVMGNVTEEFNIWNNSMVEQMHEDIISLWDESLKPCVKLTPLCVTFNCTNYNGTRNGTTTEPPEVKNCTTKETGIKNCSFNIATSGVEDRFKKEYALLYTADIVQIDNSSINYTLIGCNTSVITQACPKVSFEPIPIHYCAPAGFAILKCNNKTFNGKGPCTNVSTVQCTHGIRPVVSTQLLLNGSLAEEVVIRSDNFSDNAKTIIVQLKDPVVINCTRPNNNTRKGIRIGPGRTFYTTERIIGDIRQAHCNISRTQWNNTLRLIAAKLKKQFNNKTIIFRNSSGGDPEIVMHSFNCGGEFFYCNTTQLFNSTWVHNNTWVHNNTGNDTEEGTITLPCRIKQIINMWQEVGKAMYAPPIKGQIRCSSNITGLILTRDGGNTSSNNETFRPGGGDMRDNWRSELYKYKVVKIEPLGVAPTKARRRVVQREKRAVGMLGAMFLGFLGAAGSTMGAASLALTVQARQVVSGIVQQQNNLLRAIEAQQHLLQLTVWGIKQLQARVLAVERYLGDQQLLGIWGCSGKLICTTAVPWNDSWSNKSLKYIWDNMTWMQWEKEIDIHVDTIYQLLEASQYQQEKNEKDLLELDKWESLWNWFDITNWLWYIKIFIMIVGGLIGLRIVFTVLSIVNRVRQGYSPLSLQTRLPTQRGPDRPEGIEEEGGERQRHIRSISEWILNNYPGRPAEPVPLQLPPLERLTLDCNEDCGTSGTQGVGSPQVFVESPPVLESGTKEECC
Regarding `CSc1nnc(-c2ccccc2/N=C/c2c(C)nn(-c3ccc4ccccc4c3)c2O)c(O)n1`, the 50% inhibitory concentration (IC50) (in general, the point on the concentration scale where inhibition reaches its midpoint) is 25.8 µM (active). The result for `COc1cc(/C=C2\C(=N)N3N=C(S(C)(=O)=O)SC3=NC2=O)ccc1OCCOc1ccccc1C` reads 13.7 µM (active). The result for `COc1ccccc1NS(=O)(=O)c1cccc(N2C(=O)/C(=C\Nc3ccccc3C(=O)O)c3ccccc3C2=O)c1` reads 13.1 µM (active).

Source of the values: ChEMBL document CHEMBL1201862, “PubChem BioAssay data set” (2004).
